Usually IC50 stands for the concentration needed to halve the response being measured.

This note sets out measurements from patent publication US8378104B2 (OSI Pharmaceuticals, LLC, priority 2010, dated 2013).

For one assay, the target named is T1, TAK1-TAB1 fusion protein (Homo sapiens, UniProt O43318).
T1 construct: purchased Carna
T1 sequence (O43318 with tags, fused parts or gaps limits assumed): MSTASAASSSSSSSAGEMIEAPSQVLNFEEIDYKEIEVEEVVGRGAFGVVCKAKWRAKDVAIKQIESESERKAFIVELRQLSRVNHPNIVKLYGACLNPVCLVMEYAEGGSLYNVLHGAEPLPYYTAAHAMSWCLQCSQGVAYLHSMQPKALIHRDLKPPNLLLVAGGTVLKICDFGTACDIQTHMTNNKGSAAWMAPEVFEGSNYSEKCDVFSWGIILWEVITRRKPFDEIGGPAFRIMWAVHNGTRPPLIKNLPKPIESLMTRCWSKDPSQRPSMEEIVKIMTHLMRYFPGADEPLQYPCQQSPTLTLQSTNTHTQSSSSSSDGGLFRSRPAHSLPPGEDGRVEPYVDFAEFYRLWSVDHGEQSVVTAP
As to the kind of experiment: TAK1 biochemical assay (AlphaScreen, GST-MAP2K7 substrate). Particulars: TAK1-TAB1 fusion protein, GST-MAP2K7 substrate; read-out: mean TAK1 IC50 (Col. A). In general terms: Alpha assays give light when donor and acceptor beads are brought close together.

The test system of another assay is pJNK in HCT-116 cells. As to the kind of experiment: Phospho-JNK (Thr183/Tyr185) Meso Scale ELISA assay, TNFα-stimulated HCT-116 cells. Type of assay: cell-based. Particulars: Homo sapiens, read-out: mean HCT-116 pJNK ELISA IC50 (Col. B). The protocol:
Detailed below are ELISA assays for pJNK and p38, and a TAK1 biochemical assay. […] In Table 1, Col.
Phospho-JNK (Thr183/Tyr185) Meso Scale ELISA Assay
• 1. Plate HCT-116 cells at 25,000 per well in 100 uL in 96 well clear dishes in normal growth medium. Day 2: • 1. Aspirate medium and replace with 90 μl reduced serum growth medium (1% FCS), incubate for 2 hours at 37° C. • 2. Make drugs at 10× in reduced serum medium and add 10 uL per well. • 3. Incubate at 37° C. for 4 hrs. • 4. Bring capture plates to room temperature. • 5. Block with 150 μl Blocking Solution (provided with kit) (600 mg Blocker A into 20 mL 1× Wash Buffer per plate) at room temperature with shaking. • 6. Wash plates 4× with 200 μl 1× wash buffer (10× provided with kit) before transferring lysates. • 7. Dilute TNFα to […] in reduced serum medium (this makes a 10× working stock). • 8. Add 10 μl TNFα to all wells except negative control wells, final concentration is 10 ng/mL. • 9. Incubate at 37° C. for 10 minutes. • 10. Remove medium by flicking into sink • 11. Wash cells with 100 uL ice cold PBS. • 12. Remove PBS by flicking into sink and patting on paper towels. • 13. Lyse cells in 50 μl ice cold 1× Complete Lysis Buffer plus Phosphatase and Protease inhibitors (all provided with kit) (10 mL Tris Lysis Buffer+200 μl Protease inhibitor solution+100 μl Phosphatase inhibitor I+100 μl Phosphatase inhibitor II). • 14. Incubate with shaking at 4° C. for 30 minutes. • 15. Transfer 45 μl to capture plate, cover with adhesive cover, and incubate at 4° C. over night with shaking. • Day 3: • 1. Wash plates 4× with 200 μl 1× wash buffer (10× provided with kit). • 2. […] Incubate at room temperature with shaking for 1 hour. • 4. Wash 4× with 200 μl 1× Wash Buffer. • 5. […] Read on Sector Imager. Phospho-p38 Meso Scale ELISA Assay Day 1: • 1. Plate HCT-116 cells at 25,000 per well in 100 uL in 96 well clear dishes in normal growth medium. zday 2: • 1. Aspirate medium and replace with 90 μl reduced serum growth medium (1% FCS), incubate for 2 hours at 37° C. • 2. Make drugs at 10× in reduced serum medium and add 10 uL per well. • 3. Incubate at 37° C. for 4 hrs. • 4. Bring capture plates to room temperature. • 5. Block with 150 μl Blocking Solution (provided with kit) (600 mg Blocker A into 20 mL 1× Wash Buffer per plate) at room temperature with shaking. • 6. Wash plates 4× with 200 μl 1× wash buffer (10× provided with kit) before transferring lysates. • 7. Dilute TNFα to […] in reduced serum medium (this makes a 10× working stock). • 8. Add 10 μl TNFα to all wells except negative control wells, final concentration is 10 ng/mL. • 9. Incubate at 37° C. for 10 minutes. • 10. Remove medium by flicking into sink • 11. Wash cells with 100 uL ice cold PBS. • 12. Remove PBS by flicking into sink and patting on paper towels. • 13. Lyse cells in 50 μl ice cold 1× Complete Lysis Buffer plus phosphatase and protease inhibitors (all provided with kit) (10 mL Tris Lysis Buffer+200 μl Protease inhibitor solution+100 μl Phosphatase inhibitor I+100 μl Phosphatase inhibitor II). • 14. Incubate with shaking at 4° C. for 30 minutes. • 15. Dilute lysates before transferring to capture plate with 100 μl Complete p38 Lysate • Dilution Buffer (provided with kit) (10 mL of Diluent 20±200 μl Protease inhibitor solution+100 μl Phosphatase inhibitor I+100 μl Phosphatase inhibitor II). • 16. Transfer 50 μl of diluted lysates to capture plate, cover with adhesive cover, and incubate at 4° C. over night with shaking. Day 3: • 1. Wash plates 4× with 200 μl 1× wash buffer (10× provided with kit). • 2. […] Incubate at room temperature with shaking for 1 hour. • 4. Wash 4× with 200 μl 1× Wash Buffer. • 5. […] Read on Sector Imager. TAK1 Biochemical Assay

Each structure is given as a SMILES string. Counter-ions that a name gives are not always drawn.

Consider `CC(=O)N1CCC(n2cc(-c3cnc(N)c4oc(-c5cn(C)c6cnccc56)cc34)cn2)CC1` [Example 266, 1-(4-{4-[7-amino-2-(1-methyl-1H-pyrrolo[2,3-c]pyridin-3-yl)-furo[2,3-c]pyridin-4-yl]-pyrazol-1-yl}-piperidin-1-yl)-ethanone], for which the IC50 is below 100 nM at TAK1-TAB1 fusion protein and 100 to 1000 nM in the assay with pJNK in HCT-116 cells.

With `Nc1ncc(-c2cnn([C@@H]3C[C@H]4CC[C@@H](C3)N4)c2)c2cc(-c3cccc4cnsc34)oc12` [Example 321, 4-{1-[(3-exo)-8-azabicyclo[3.2.1]oct-3-yl]-1H-pyrazol-4-yl}-2-(1,2-benzisothiazol-7-yl)furo[2,3-c]pyridin-7-amine], the results for the IC50 at TAK1-TAB1 fusion protein and with pJNK in HCT-116 cells were below 100 nM and 100 to 1000 nM, respectively.

`CC(=O)N1CCC(n2cc(-c3cnc(N)c4oc(-c5csc6cnc(F)cc56)cc34)cn2)CC1` [Example 248, 1-(4-{4-[7-amino-2-(5-fluorothieno[2,3-c]pyridin-3-yl)furo[2,3-c]pyridin-4-yl]-1H-pyrazol-1-yl}piperidin-1-yl)ethanone bis(trifluoroacetate)]: the concentration for half-maximal inhibition (IC50) at TAK1-TAB1 fusion protein and with pJNK in HCT-116 cells was below 100 nM in each case.

Take `Nc1ncc(-c2cnn([C@H]3CC[C@H](O)CC3)c2)c2cc(-c3csc4cnc(Cl)cc34)oc12` [Example 247, trans-4-{4-[7-amino-2-(5-chlorothieno[2,3-c]pyridin-3-yl)furo[2,3-c]pyridin-4-yl]-1H-pyrazol-1-yl}cyclohexanol bis(trifluoroacetate)]: the IC50 on TAK1-TAB1 fusion protein and in the assay on pJNK in HCT-116 cells was 100 to 1000 nM each time.

Consider `Nc1ncc(-c2cnn([C@H]3CC[C@H](O)CC3)c2)c2cc(-c3csc4cnc(O)cc34)oc12` [Example 360, 3-{7-Amino-4-[1-(trans-4-hydroxycyclohexyl)-1H-pyrazol-4-yl]furo[2,3-c]pyridin-2-yl}thieno[2,3-c]pyridin-5-ol], for which the half-inhibitory concentration (IC50) at TAK1-TAB1 fusion protein is 100 to 1000 nM; in the assay on pJNK in HCT-116 cells, 1000 to 10000 nM.

On to `Nc1ncc(-c2cnn(C3CCN(C(=O)NCC4CCCCC4)CC3)c2)c2cc(-c3cccc4cnsc34)oc12` [Example 341, 4-[4-(7-amino-2-benzo[d]isothiazol-7-yl-furo[2,3-c]pyridin-4-yl)-pyrazol-1-yl]-piperidine-1-carboxylic acid cyclohexylmethyl-amide], for which the figures for the concentration for half-maximal inhibition (IC50) on TAK1-TAB1 fusion protein and with pJNK in HCT-116 cells were 100 to 1000 nM and below 100 nM, respectively.

For `Nc1ncc(-c2cnn([C@H]3CC[C@H](O)CC3)c2)c2cc(-c3cccc4cnncc34)oc12` [Example 366, trans-4-{4-[7-amino-2-(phthalazin-5-yl)furo[2,3-c]pyridin-4-yl]-1H-pyrazol-1-yl}cyclohexanol], the IC50 at TAK1-TAB1 fusion protein and with pJNK in HCT-116 cells was below 100 nM in each case.

Take `CC(=O)N1CCC(n2cc(-c3cnc(N)c4oc(-c5c(F)ccc6nnsc56)cc34)cn2)CC1` [Example 273, 1-(4-{4-[7-amino-2-(6-fluoro-1,2,3-benzothiadiazol-7-yl)furo[2,3-c]pyridin-4-yl]-1H-pyrazol-1-yl}piperidin-1-yl)ethanone]: the IC50 is below 100 nM at TAK1-TAB1 fusion protein and 100 to 1000 nM in the assay on pJNK in HCT-116 cells.

`N#Cc1cc(-c2cc3c(-c4cnn([C@H]5CC[C@H](O)CC5)c4)cnc(N)c3o2)c2snnc2c1` [Example 370, 7-{7-amino-4-[1-(trans-4-hydroxycyclohexyl)-1H-pyrazol-4-yl]furo[2,3-c]pyridin-2-yl}-1,2,3-benzothiadiazole-5-carbonitrile]: the IC50 on TAK1-TAB1 fusion protein is 100 to 1000 nM; with pJNK in HCT-116 cells it was below 100 nM.

Regarding `Nc1ncc(-c2ccoc2)c2cc(-c3csc4cnccc34)oc12` [Example 392, 4-(furan-3-yl)-2-(thieno[2,3-c]pyridin-3-yl)furo[2,3-c]pyridin-7-amine trifluoroacetate], the figures for the half-maximal inhibitory concentration (IC50) on TAK1-TAB1 fusion protein and with pJNK in HCT-116 cells were 100 to 1000 nM and 1000 to 10000 nM, respectively.

For `Nc1ncc(-c2cnn([C@@H]3CC[C@@H](O)C3)c2)c2cc(-c3csc4cnccc34)oc12` [Example 308, (1R,3R)-3-[4-(7-amino-2-thieno[2,3-c]pyridin-3-yl-furo[2,3-c]pyridin-4-yl)-pyrazol-1-yl]-cyclopentanol], the results for the IC50 at TAK1-TAB1 fusion protein and in the assay on pJNK in HCT-116 cells were below 100 nM and 100 to 1000 nM, respectively.

As for `COc1nn([C@H]2CC[C@H](O)CC2)cc1-c1cnc(N)c2oc(-c3cccc4nnsc34)cc12` [Example 347, trans-4-{4-[7-amino-2-(1,2,3-benzothiadiazol-7-yl)furo[2,3-c]pyridin-4-yl]-3-methoxy-1H-pyrazol-1-yl}cyclohexanol diformate salt], the half-maximal inhibitory concentration (IC50) on TAK1-TAB1 fusion protein and in the assay on pJNK in HCT-116 cells was below 100 nM in each case.

Turning to `CC(=O)N1CCC(n2cc(-c3cnc(N)c4oc(-c5csc6c(F)nccc56)cc34)cn2)CC1` [Example 256, 1-(4-{4-[7-amino-2-(7-fluorothieno[2,3-c]pyridin-3-yl)furo[2,3-c]pyridin-4-yl]-1H-pyrazol-1-yl}piperidin-1-yl)ethanone trifluoroacetic acid salt], the concentration for half-maximal inhibition (IC50) at TAK1-TAB1 fusion protein and in the assay on pJNK in HCT-116 cells was 100 to 1000 nM throughout.

For `[2H]C([2H])([2H])Nc1ncc(-c2cnn([C@H]3CC[C@H](O)CC3)c2)c2cc(-c3cccc4nnsc34)oc12` [Example 361, trans-4-(4-{2-(1,2,3-benzothiadiazol-7-yl)-7-[(^2H3)methylamino]furo[2,3-c]pyridin-4-yl}-1H-pyrazol-1-yl)cyclohexanol], the IC50 at TAK1-TAB1 fusion protein and in the assay on pJNK in HCT-116 cells was below 100 nM throughout.

Turning to `Cc1cc(-c2cnc(N)c3oc(-c4csc5cnccc45)cc23)c(C)s1` [Example 377, 4-(2,5-dimethyl-thiophen-3-yl)-2-thieno[2,3-c]pyridin-3-yl-furo[2,3-c]pyridin-7-ylamine], the concentration for half-maximal inhibition (IC50) at TAK1-TAB1 fusion protein was in the range of 1000 to 10000 nM.

For the compound `CC(=O)N1CCC(n2cc(-c3cnc(N)c4oc(-c5ccc(COc6cccc7ccccc67)cc5)cc34)cn2)CC1` [Example 156, 1-{4-[4-(7-amino-2-{4-[(naphthalen-1-yloxy)methyl]phenyl}furo[2,3-c]pyridin-4-yl)-1H-pyrazol-1-yl]piperidin-1-yl}ethanone], the IC50 at TAK1-TAB1 fusion protein is above 10000 nM.

On to `CC(=O)N1CCC(n2cc(-c3cnc(N)c4oc(-c5c[nH]c6ccccc56)cc34)cn2)CC1` [Example 188, 1-(4-{4-[7-amino-2-(1H-indol-3-yl)furo[2,3-c]pyridin-4-yl]-1H-pyrazol-1-yl}piperidin-1-yl)ethanone], for which, at TAK1-TAB1 fusion protein, the IC50 was above 10000 nM.

Take `Nc1ncc(-c2cnn(CCO)c2)c2cc(-c3csc4cnccc34)oc12` [Example 319, 2-[4-(7-amino-2-thieno[2,3-d]pyridin-3-yl-furo[2,3-d]pyridin-4-yl)-pyrazol-1-yl]-ethanol]: on TAK1-TAB1 fusion protein, the half-inhibitory concentration (IC50) is 100 to 1000 nM.
